From ChEMBL document CHEMBL5352446, “Synthesis and biological evaluation of a novel c-Myc inhibitor against colorectal cancer via blocking c-Myc/Max heterodimerization and disturbing its DNA binding” (Eur J Med Chem, 2022)
The source made the active and inactive calls. The rule behind the calls is not given here.

Columns and labels:
HT-29 [1] = experiment: Induction of apoptosis in human HT-29 cells assessed as necrotic cells at 0.625 uM incubated for 24 hrs by FITC Annexin-V and PI staining based flow cytometry analysis (reference value: 0.13%); format: functional
HT-29 [2] = experiment: Induction of cell cycle arrest in human HT-29 cells assessed as accumulation of cells at S phase at 2.5 uM incubated for 24 hrs by propidium iodide staining based flow cytometry analysis (reference value: 12.01 %); format: functional
HT-29 [3] = experiment: Induction of apoptosis in human HT-29 cells assessed as necrotic cells at 10 uM incubated for 24 hrs by FITC Annexin-V and PI staining based flow cytometry analysis (reference value: 0.13%); format: functional
HCT-15 = experiment: Antiproliferative activity against human HCT-15 cells incubated for 72 hrs by MTT assay; format: functional, cell-based; conditions: HCT-15, 72 h
HT-29 [4] = experiment: Induction of cell cycle arrest in human HT-29 cells assessed as accumulation of cells at G1 phase at 2.5 uM incubated for 24 hrs by propidium iodide staining based flow cytometry analysis (reference value: 65.37 %); format: functional
HT-29 [5] = experiment: Antitumor activity against human HT-29 cells xenografted in BALB/c mouse assessed as tumor growth inhibition at 40 mg/kg, ip administered daily for 3 weeks by caliper method; format: functional; conditions: HT-29, 504 h, read-out: TGI
HT-29 [6] = experiment: Induction of apoptosis in human HT-29 cells assessed as upregulation of BAD expression incubated for 24 hrs by Western blot analysis; format: functional, cell-based; conditions: dose 2.5-10 µM
HT-29 [7] = experiment: Induction of cell cycle arrest in human HT-29 cells assessed as accumulation of cells at G2 phase at 5 uM incubated for 24 hrs by propidium iodide staining based flow cytometry analysis (reference value: 16.33 %); format: functional
HT-29 [8] = experiment: Induction of cell cycle arrest in human HT-29 cells assessed as accumulation of cells at G1 phase at 5 uM incubated for 24 hrs by propidium iodide staining based flow cytometry analysis (reference value: 65.37 %); format: functional
HT-29 [9] = experiment: Induction of apoptosis in human HT-29 cells assessed as early apoptotic cells at 0.625 uM incubated for 24 hrs by FITC Annexin-V and PI staining based flow cytometry analysis (reference value: 2.15%); format: functional
HT-29 [10] = experiment: Induction of apoptosis in human HT-29 cells assessed as late apoptotic cells at 2.5 uM incubated for 24 hrs by FITC Annexin-V and PI staining based flow cytometry analysis (reference value: 0.78%); format: functional
[11] = Toxicity in BALB/c mouse xenografted with human HT-29 cells assessed as kidney damage at 40 to 80 mg/kg, ip measured after 21 days by H and E staining based assay; format: organism-based; conditions: in vivo, 504 h, dose 40-80 mg/kg, time 21 day
HT-29 [12] = experiment: Induction of apoptosis in human HT-29 cells assessed as necrotic cells at 2.5 uM incubated for 24 hrs by FITC Annexin-V and PI staining based flow cytometry analysis (reference value: 0.13%); format: functional
HT-29 [13] = experiment: Induction of cell cycle arrest in human HT-29 cells assessed as accumulation of cells at G1 phase at 1.25 uM incubated for 24 hrs by propidium iodide staining based flow cytometry analysis (reference value: 65.37 %); format: functional
HT-29 [14] = experiment: Potency index, ratio of 5-Fu IC50 to test compound IC50 for antiproliferative activity against human HT-29 cells; format: functional
HT-29 [15] = experiment: Induction of apoptosis in human HT-29 cells assessed as late apoptotic cells at 1.25 uM incubated for 24 hrs by FITC Annexin-V and PI staining based flow cytometry analysis (reference value: 0.78%); format: functional
HT-29 [16] = experiment: Induction of apoptosis in human HT-29 cells assessed as early apoptotic cells at 5 uM incubated for 24 hrs by FITC Annexin-V and PI staining based flow cytometry analysis (reference value: 2.15%); format: functional
HT-29 [17] = experiment: Induction of apoptosis in human HT-29 cells assessed as viable cells at 1.25 uM incubated for 24 hrs by FITC Annexin-V and PI staining based flow cytometry analysis (reference value: 96.94%); format: functional; conditions: read-out: Activity
HT-29 [18] = experiment: Induction of apoptosis in human HT-29 cells assessed as upregulation of cleaved caspase 9 expression incubated for 24 hrs by Western blot analysis; format: functional, cell-based; conditions: dose 2.5-10 µM
HT-29 [19] = experiment: cells; conditions: Homo sapiens, HT-29, 72 h
Description: Antiproliferative activity against human HT-29 cells incubated for 72 hrs by MTT assay

[20] = Toxicity in BALB/c mouse xenografted with human HT-29 cells assessed as heart damage at 40 to 80 mg/kg, ip measured after 21 days by H and E staining based assay; format: organism-based; conditions: in vivo, 504 h, dose 40-80 mg/kg, time 21 day
HT-29 [21] = experiment: Induction of apoptosis in human HT-29 cells assessed as upregulation of Bax expression incubated for 24 hrs by Western blot analysis; format: functional, cell-based; conditions: dose 2.5-10 µM
HT-29 [22] = experiment: Induction of cell cycle arrest in human HT-29 cells assessed as accumulation of cells at G2 phase at 0.625 uM incubated for 24 hrs by propidium iodide staining based flow cytometry analysis (reference value: 16.33 %); format: functional
HT-29 [23] = experiment: Induction of apoptosis in human HT-29 cells assessed as viable cells at 0.625 uM incubated for 24 hrs by FITC Annexin-V and PI staining based flow cytometry analysis (reference value: 96.94%); format: functional; conditions: read-out: Activity
HT-29 [24] = experiment: Downregulation of c-Myc expression in human HT-29 cells at 10 uM incubated for 24 hrs by Western blot analysis; format: functional, cell-based
HT-29 [25] = experiment: Induction of apoptosis in human HT-29 cells assessed as downregulation of Bcl-2 expression incubated for 24 hrs by Western blot analysis; format: functional, cell-based; conditions: dose 2.5-10 µM
[26] = Toxicity in BALB/c mouse xenografted with human HT-29 cells assessed as lung damage at 40 to 80 mg/kg, ip measured after 21 days by H and E staining based assay; format: organism-based; conditions: in vivo, 504 h, dose 40-80 mg/kg, time 21 day
[27] = Toxicity in BALB/c mouse xenografted with human HT-29 cells assessed as spleen damage at 40 to 80 mg/kg, ip measured after 21 days by H and E staining based assay; format: organism-based; conditions: in vivo, 504 h, dose 40-80 mg/kg, time 21 day
HT-29 [28] = experiment: Induction of apoptosis in human HT-29 cells assessed as early apoptotic cells at 2.5 uM incubated for 24 hrs by FITC Annexin-V and PI staining based flow cytometry analysis (reference value: 2.15%); format: functional

Q: Which results are given for `COc1cc(Oc2ccc(Nc3ccc(CCCO)cc3)cc2)cc(OC)c1CNCCc1ccc(C(F)(F)F)cc1`?
A: Activity (HT-29 [1]): 1.44%; Activity (HT-29 [2]): 14.32%; Activity (HT-29 [3]): 1.87%; IC50 (HCT-15): 2.34 µM; Activity (HT-29 [4]): 75.57%; inhibition in vivo at 40 mg/kg (HT-29 [5]): 65.5%; Activity (HT-29 [6]): Dose-Dependent Effect; Activity (HT-29 [7]): 8.51%; Activity (HT-29 [8]): 76.86%; Activity (HT-29 [9]): 5.9%; Activity (HT-29 [10]): 7.03%; Activity [11]: Non-Toxic; Activity (HT-29 [12]): 3.95%; Activity (HT-29 [13]): 74.95%; Ratio IC50 (HT-29 [14]): 32; Activity (HT-29 [15]): 4.55%; Activity (HT-29 [16]): 22.05%; viability at 1.25 µM (HT-29 [17]): 81%; Activity (HT-29 [18]): Dose-Dependent Effect; IC50 (HT-29 [19]): 0.29 µM; Activity [20]: Non-Toxic; Activity (HT-29 [21]): Dose-Dependent Effect; Activity (HT-29 [22]): 11.95%; viability at 0.625 µM (HT-29 [23]): 89.5%; Activity (HT-29 [24]): Active; Activity (HT-29 [25]): Dose-Dependent Effect; Activity [26]: Non-Toxic; Activity [27]: Non-Toxic; Activity (HT-29 [28]): 19.39%
